Laboratory results reported in patent publication US20040038985A1, “Crystal forms of 1- [6-chloro-5-(trifluoromethly) -2-pyridinyl] piperazine hydrochloride” (priority 2000, published 2004).

Key:
[1] = Stability of crystal forms A and B in admixture with excipients (HPLC content after storage); type: physicochemical; conditions: for content of Org 12962 remaining after storage, percentage of the initial amount: 14 days
Procedure: To each aliquot an excipient mentioned in Table II was added, followed by 10 μl of water, after which the suspensions were thoroughly mixed.
Aliquots of Org 12962 (5-10 mg) in crystal form B (100% form B) were weighed into roundbottomed tubes. To each aliquot an excipient mentioned in Table II was added, followed by 100 μl of water. Glass beads (250-300 mg) were added to each tube, after which the samples were thoroughly mixed for 1 minute. The residual water was evaporated in vacuo at room temperature. The tubes were stored in the dark for 14 days at either 20° C. or at 60° C. The samples were dissolved in 20.0 ml of a 70:30 mixture of 25 mM phosphate pH 2.6 buffer and acetonitrile. Dissolution was effected by keeping the tubes in a sonifier for 20 minutes.
Quantitative analysis of the amount of Org 12962 per tube was done by high performance liquid chromatography (hplc) using either of the following validated methods: (1) using a Symmetry Shield Reverse Phase RP 18 column (150×4.6 mm), which was operated at 40° C., using a flow rate of 1.0 ml/min, and as eluent a 69:31 (v/v) mixture of 25 mM phosphate buffer pH 2.6 buffer, also containing 15 mM octanesulphonic acid, and acetonitrile, or (2) using a Lichrospher 60 RP Select B column (125×4.0 mm), which was operated at ambient temperature, using a flow rate of 1.5 ml/min, and as eluent a 55:45 (v/v) mixture of methanol and water, also containing 5 mM octanesulphonic acid. The content of Org 12962 remaining in the samples after storage is given in Table II as the percentage (%) of the initial amount.

[2] = Thermodynamic stability / interconversion of crystal forms of Org 12962; type: physicochemical; conditions: solid crystal forms of Org 12962 compared
[3] = admixture with Cornstarch (10 mg per 5.0 mg Org 12962), 20° C./dark
[4] = admixture with Cornstarch (10 mg per 5.0 mg Org 12962), 60° C./dark
[5] = admixture with HPC (2 mg per 5.0 mg Org 12962), 20° C./dark
[6] = admixture with HPMC (1.3 mg per 5.0 mg Org 12962), 20° C./dark
[7] = admixture with HPMC (1.3 mg per 5.0 mg Org 12962), 60° C./dark
[8] = admixture with Lactose (80 mg per 5.0 mg Org 12962), 20° C./dark
[9] = admixture with Lactose (80 mg per 5.0 mg Org 12962), 60° C./dark
[10] = admixture with Mg-stearate (0.5 mg per 5.0 mg Org 12962), 20° C./dark
[11] = admixture with Mg-stearate (0.5 mg per 5.0 mg Org 12962), 60° C./dark
[12] = admixture with PEG 400 (0.3 mg per 5.0 mg Org 12962), 20° C./dark
[13] = admixture with PEG 400 (0.3 mg per 5.0 mg Org 12962), 60° C./dark
[14] = admixture with Primojel (4 mg per 5.0 mg Org 12962), 20° C./dark
[15] = admixture with Primojel (4 mg per 5.0 mg Org 12962), 60° C./dark
[16] = admixture with Talc (0.3 mg per 5.0 mg Org 12962), 20° C./dark
[17] = admixture with Talc (0.3 mg per 5.0 mg Org 12962), 60° C./dark
[18] = admixture with Titanium dioxide (0.2 mg per 5.0 mg Org 12962), 20° C./dark
[19] = admixture with Titanium dioxide (0.2 mg per 5.0 mg Org 12962), 60° C./dark

SMILES	content of Org 12962 remaining after storage, percentage of the initial amount [1, 3] [%]	content of Org 12962 remaining after storage, percentage of the initial amount [1, 4] [%]	content of Org 12962 remaining after storage, percentage of the initial amount [1, 5] [%]	content of Org 12962 remaining after storage, percentage of the initial amount [1, 6] [%]	content of Org 12962 remaining after storage, percentage of the initial amount [1, 7] [%]	content of Org 12962 remaining after storage, percentage of the initial amount [1, 8] [%]	content of Org 12962 remaining after storage, percentage of the initial amount [1, 9] [%]	content of Org 12962 remaining after storage, percentage of the initial amount [1, 10] [%]	content of Org 12962 remaining after storage, percentage of the initial amount [1, 11] [%]	content of Org 12962 remaining after storage, percentage of the initial amount [1, 12] [%]	content of Org 12962 remaining after storage, percentage of the initial amount [1, 13] [%]	content of Org 12962 remaining after storage, percentage of the initial amount [1, 14] [%]	content of Org 12962 remaining after storage, percentage of the initial amount [1, 15] [%]	content of Org 12962 remaining after storage, percentage of the initial amount [1, 16] [%]	content of Org 12962 remaining after storage, percentage of the initial amount [1, 17] [%]	content of Org 12962 remaining after storage, percentage of the initial amount [1, 18] [%]	content of Org 12962 remaining after storage, percentage of the initial amount [1, 19] [%]	also measured
Cl.FC(F)(F)c1ccc(N2CCNCC2)nc1Cl [I, 1-[6-Chloro-5-(trifluoromethyl)-2-pyridinyl]piperazine.hydrochloride]	100.0	82.6	98.0	95.0	91.8	94.5	91.2	97.9	93.8	96.5	92.5	95.0	94.6	99.2	94.5	96.0	97.5	
Cl.FC(F)(F)c1ccc(N2CCNCC2)nc1Cl [II, 1-[6-Chloro-5-(trifluoromethyl)-2-pyridinyl]piperazine.hydrochloride]	100.1	97.9	100.0	100.0	97.8	99.6	97.4	99.9	97.9	99.8	96.3	100.0	96.0	99.9	100.1	99.8	92.9	thermodynamic stability of the crystal form ([2]; listed as crystal form B): thermodynamically most stable form; content of Org 12962 remaining after storage, percentage of the initial amount ([1]; admixture with HPC (2 mg per 5.0 mg Org 12962), 60° C./dark): 96.5%; stability in admixture with pharmaceutical excipients, compared with crystal form A ([1]; stored in the dark, especially notable at 60° C. with lactose and cornstarch): more stable
Cl.FC(F)(F)c1ccc(N2CCNCC2)nc1Cl [form C, 1-[6-Chloro-5-(trifluoromethyl)-2-pyridinyl]piperazine.hydrochloride]																		thermodynamic stability of the crystal form [2]: spontaneously converts to form B, even at −20 °C
